According to patent US11041000B2, “Peptide inhibitors of interleukin-23 receptor and their use to treat inflammatory diseases” (priority 2019, dated 2021):
Bridge positions count the residues as written; N and C are the ends. Square brackets hold non-standard residues; d marks the D form. Peptide text beside a SMILES is read from it. Trp(7-OMe) = COc1cccc2c(C[C@H](N)C(=O)O)c[nH]c12; His(π-Bom) = N[C@@H](Cc1cncn1COCc1ccccc1)C(=O)O; Trp(7-Me) = Cc1cccc2c(C[C@H](N)C(=O)O)c[nH]c12; 2Nal = N[C@@H](Cc1ccc2ccccc2c1)C(=O)O; AEF = NCCOc1ccc(C[C@H](N)C(=O)O)cc1; Cit = NC(=O)NCCC[C@H](N)C(=O)O; αMeL = CC(C)C[C@](C)(N)C(=O)O; Pen = CC(C)(S)[C@H](N)C(=O)O; αMeK = C[C@](N)(CCCCN)C(=O)O; Aib = CC(C)(N)C(=O)O; βAla = NCCC(=O)O

Key:
[1] = Stability in human fecal homogenate; assay type: in vitro ADME; conditions: 20% fecal homogenate (supernatant), pH 6.8, 20% human fecal homogenate, anaerobic, 37° C., read-out: t½: Human Feces anaerobic (converted)
Protocol: (§1) Centrifuged the homogenate at 2800×g for 15 min. The supernatant is taken out and used for incubations. […] The final test compound concentration was 20 μM.

Stability in rat plasma = assay type: in vitro ADME; conditions: both sexes, SD rat plasma, EDTA, 37° C., read-out: t½: Rat Plasma EDTA (converted)
[2] = target: IL-23R-expressing DB cells (Homo sapiens, UniProt Q5VWK5); assay: DB cells IL23R pSTAT3 cell assay (pStat3HTRF); assay type: cell-based; conditions: DB cells stimulated with IL-23 0.5 nM, 30 minutes, phospho-STAT3 in cell lysates; read-out: pStat3 HTRF
From the text: Human ELISA indicates the IL23-IL23R competitive binding assay described below, Rat ELISA indicates the rat IL-23R competitive binding ELISA assay described below, and pStat3HTRF indicates the DB cells IL-23R pSTAT3 cell assay described below. The peptides depicted in Table E1 are cyclized via a disulfide bridge formed between two Pen residues in these peptides. The peptides depicted in Table E2 are cyclized via a thioether bond between the indicated amino acid residues. Table E2 provides an illustrative structure depicting thioether cyclization, which is indicated in the table by the term “cyclo,” with the cyclic region bracketed immediately following the term “cyclo.” For certain peptides, the residue Abu is present where indicated, whereas in other embodiments, e.g., those related to the non-cyclized form, the Abu may be referred to as a hSer(Cl) or homoSer residue. The petpides depicted in Table E3 are cyclized via a disulfide bridge formed between two Pen residues or a thioether bond between Abu and Cys.
IL-23 plays a central role in supporting and maintaining Th17 differentiation in vivo. This process is thought to be mediated primarily through the Signal Transducer and Activator of Transcription 3 (STAT3), with phosphorylation of STAT3 (to yield pSTAT3) leading to upregulation of RORC and pro-inflammatory IL-17. This cell assay examines the levels of pSTAT3 in IL-23R-expressing DB cells when stimulated with IL-23 in the presence of test compounds. Serial dilutions of test peptides and IL-23 (Humanzyme #HZ-1261) at a final concentration of 0.5 nM, were added to each well in a 96 well tissue culture plate (Corning #CLS3894). DB cells (ATCC #CRL-2289), cultured in RPMI-1640 medium (Thermo Scientific #11875093) supplemented with 10% FBS, were added at 5×10E5 cells/well and incubated for 30 minutes at 37° C. in a 5% CO2 humidified incubator. Changes in phospho-STAT3 levels in the cell lysates were detected using the Cisbio HTRF pSTAT3 (Tyr705) Cellular Assay Kit (Cisbio #62AT3PEH), according to manufacturer's Two Plate Assay protocol.

[3] = Stability in cynomolgus monkey fecal homogenate; assay type: in vitro ADME; conditions: 20% fecal homogenate (supernatant), anaerobic, pH 6.8, 20% cynomolgus monkey fecal homogenate, 37° C., read-out: t½: Monkey Feces anaerobic (converted)
Protocol: as §1

[4] = Stability in simulated intestinal fluid (SIF); assay type: in vitro ADME; conditions: simulated intestinal fluid with pancreatin, pH 6.8, 37° C., matrix is 100 fold dilution of standard SIF concentration; for half-life at 20 μM: read-out: SIF t½ (converted); for SIF t½: 20 μM

IL-23R-expressing DB cells, sequence (Q5VWK5 24-629 limits assumed): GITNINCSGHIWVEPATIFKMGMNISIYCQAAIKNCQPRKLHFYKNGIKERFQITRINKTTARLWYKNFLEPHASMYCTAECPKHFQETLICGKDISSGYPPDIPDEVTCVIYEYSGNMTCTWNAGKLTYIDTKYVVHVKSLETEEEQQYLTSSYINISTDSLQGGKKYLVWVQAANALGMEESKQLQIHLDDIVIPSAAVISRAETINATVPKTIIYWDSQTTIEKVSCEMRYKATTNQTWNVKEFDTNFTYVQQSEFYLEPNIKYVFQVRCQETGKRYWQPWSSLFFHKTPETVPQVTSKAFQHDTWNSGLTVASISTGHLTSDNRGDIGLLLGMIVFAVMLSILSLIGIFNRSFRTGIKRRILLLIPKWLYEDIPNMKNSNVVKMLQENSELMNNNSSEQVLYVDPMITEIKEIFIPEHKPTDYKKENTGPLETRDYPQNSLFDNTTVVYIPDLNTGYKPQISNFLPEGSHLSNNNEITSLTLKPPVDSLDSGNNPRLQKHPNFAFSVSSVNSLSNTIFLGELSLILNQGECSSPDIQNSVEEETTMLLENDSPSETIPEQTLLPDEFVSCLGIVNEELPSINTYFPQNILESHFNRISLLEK

half-life at 20 μM [3]	SIF t½ [4]	Structure (SMILES)	half-life at 20 μM [1]	half-life at 20 μM (Stability in rat plasma)	IC50 [2]	half-life at 20 μM ([3]; cynomolgus monkey)	half-life at 20 μM [4]
		CC(=O)NCCCC[C@@H]1NC(=O)[C@H](Cc2c[nH]c3c(C)cccc23)NC(=O)[C@H]([C@@H](C)O)NC(=O)[C@H](CC(N)=O)NC(=O)[C@@H](NC(C)=O)C(C)(C)SSC(C)(C)[C@@H](C(=O)N[C@@H](Cc2cncn2COCc2ccccc2)C(=O)N[C@@H](Cc2ccc3ccccc3c2)C(=O)N[C@@](C)(CCCCN)C(=O)N[C@@H](CCCCNC(C)=O)C(=O)N[C@@H](CC(N)=O)C(=O)N[C@H](CC(C)C)C(N)=O)NC1=O [compound 291] (Ac-[Pen]NT[Trp(7-Me)]K(Ac)[Pen][His(π-Bom)][2Nal][αMeK]K(Ac)N[dL]-NH2; disulfide 1-6)	> 24 h	> 24 h	> 1000 nM	> 24 h	
> 24 h		CC(=O)NCCCC[C@H](NC(=O)[C@](C)(CCCCN)NC(=O)[C@H](Cc1ccc2ccccc2c1)NC(=O)[C@H](Cc1ccc(OCCN)cc1)NC(=O)[C@H]1NC(=O)[C@H](CCCNC(N)=O)NC(=O)[C@H](Cc2c[nH]c3c(C)cccc23)NC(=O)[C@H]([C@@H](C)O)NC(=O)[C@H](CC(N)=O)NC(=O)[C@@H](NC(C)=O)C(C)(C)SSC1(C)C)C(=O)N[C@@H](CC(N)=O)C(=O)NC(C)(C)C(=O)N[C@H](CCCNC(=N)N)C(N)=O [compound 345] (Ac-[Pen]NT[Trp(7-Me)][Cit][Pen][AEF][2Nal][αMeK]K(Ac)N[Aib][dR]-NH2; disulfide 1-6)	> 24 h	> 24 h	0.639 nM		12 h
> 24 h	24 h	CCCCCCCC(=O)NCCCC[C@H](NC(=O)[C@](C)(CCCCN)NC(=O)[C@H](Cc1ccc2ccccc2c1)NC(=O)[C@H](Cc1ccc(OCCN)cc1)NC(=O)[C@H]1NC(=O)[C@H](CCCCNC(C)=O)NC(=O)[C@H](Cc2c[nH]c3c(C)cccc23)NC(=O)[C@H]([C@@H](C)O)NC(=O)[C@H](CC(N)=O)NC(=O)[C@@H](NC(C)=O)C(C)(C)SSC1(C)C)C(=O)N[C@@H](CC(N)=O)C(=O)N[C@H](CC(C)C)C(N)=O [compound 358]	> 24 h	> 24 h	3.03 nM		
		CC(=O)NCCCC[C@H](NC(=O)[C@](C)(CCCCN)NC(=O)[C@H](Cc1ccc2ccccc2c1)NC(=O)[C@H](Cc1ccc(OCCN)cc1)NC(=O)[C@H]1NC(=O)[C@H](CCC(N)=O)NC(=O)[C@H](Cc2c[nH]c3c(C)cccc23)NC(=O)[C@H]([C@@H](C)O)NC(=O)[C@H](CC(N)=O)NC(=O)[C@@H](NC(C)=O)C(C)(C)SSC1(C)C)C(=O)N[C@@H](CC(N)=O)C(=O)NCCC(N)=O [compound 267]	> 24 h	> 24 h	0.506 nM		
		CC(=O)NCCCC[C@H](NC(=O)[C@](C)(CC(C)C)NC(=O)[C@H](Cc1ccc2ccccc2c1)NC(=O)[C@H](Cc1ccc(OCCN)cc1)NC(=O)[C@H]1NC(=O)[C@H](CCC(N)=O)NC(=O)[C@H](Cc2c[nH]c3c(C)cccc23)NC(=O)[C@H]([C@@H](C)O)NC(=O)[C@H](CC(N)=O)NC(=O)[C@@H](NC(C)=O)C(C)(C)SSC1(C)C)C(=O)N1CCC[C@H]1C(=O)NCCC(N)=O [compound 211]	10 h		178 nM	> 24 h	
> 24 h	24 h	COc1cccc2c(C[C@@H]3NC(=O)[C@H]([C@@H](C)O)NC(=O)[C@H](CC(N)=O)NC(=O)[C@@H](NC(C)=O)C(C)(C)SSC(C)(C)[C@@H](C(=O)N[C@@H](Cc4ccc(OCCN)cc4)C(=O)N[C@@H](Cc4ccc5ccccc5c4)C(=O)N[C@@](C)(CCCCN)C(=O)N[C@@H](CCCCNC(C)=O)C(=O)N[C@@H](CC(N)=O)C(=O)N[C@H](CCCCN)C(N)=O)NC(=O)[C@H](CCCNC(N)=O)NC3=O)c[nH]c12 [compound 300] (Ac-[Pen]NT[Trp(7-OMe)][Cit][Pen][AEF][2Nal][αMeK]K(Ac)N[dK]-NH2; disulfide 1-6)	> 24 h	> 24 h	> 1000 nM		
		CC(=O)NCCCC[C@H](NC(=O)[C@](C)(CCCCN)NC(=O)[C@H](Cc1ccc2ccccc2c1)NC(=O)[C@H](Cc1ccc(OCCN)cc1)NC(=O)[C@H]1NC(=O)[C@H](CCC(N)=O)NC(=O)[C@H](Cc2c[nH]c3c(C)cccc23)NC(=O)[C@H]([C@@H](C)O)NC(=O)C(C)(C)NC(=O)[C@@H](NC(C)=O)C(C)(C)SSC1(C)C)C(=O)N[C@@H](CC(N)=O)C(=O)NCCC(N)=O [compound 240] (Ac-[Pen][Aib]T[Trp(7-Me)]Q[Pen][AEF][2Nal][αMeK]K(Ac)N[βAla]-NH2; disulfide 1-6)	4 h	8 h	17.7 nM	3 h	7 h
		CC(=O)NCCCC[C@H](NC(=O)[C@](C)(CC(C)C)NC(=O)[C@H](Cc1ccc2ccccc2c1)NC(=O)[C@H](Cc1ccc(OCCN)cc1)NC(=O)[C@H]1NC(=O)[C@H](CCC(N)=O)NC(=O)[C@H](Cc2c[nH]c3c(C)cccc23)NC(=O)[C@H]([C@@H](C)O)NC(=O)[C@H](CC(N)=O)NC(=O)[C@@H](NC(C)=O)C(C)(C)SSC1(C)C)C(=O)N[C@@H](C(=O)NCCC(N)=O)[C@H](C)O [compound 218]	> 24 h	1 h	11 nM	> 24 h	
		CC(=O)NCCCC[C@H](NC(=O)[C@](C)(CC(C)C)NC(=O)[C@H](Cc1ccc2ccccc2c1)NC(=O)[C@H](Cc1ccc(OCCN)cc1)NC(=O)[C@H]1NC(=O)[C@H](CCCNC(N)=O)NC(=O)[C@H](Cc2c[nH]c3c(C)cccc23)NC(=O)[C@H]([C@@H](C)O)NC(=O)[C@H](CC(N)=O)NC(=O)[C@@H](NC(C)=O)C(C)(C)SSC1(C)C)C(=O)N[C@@H](CC(N)=O)C(=O)NCCC(N)=O [compound 227] (Ac-[Pen]NT[Trp(7-Me)][Cit][Pen][AEF][2Nal][αMeL]K(Ac)N[βAla]-NH2; disulfide 1-6)	> 24 h		0.702 nM	> 24 h	
		CC(=O)NCCCC[C@H](NC(=O)C1(NC(=O)[C@H](Cc2ccc3ccccc3c2)NC(=O)[C@H](Cc2ccc(OCCN)cc2)NC(=O)[C@H]2NC(=O)[C@H](CCC(N)=O)NC(=O)[C@H](Cc3c[nH]c4c(C)cccc34)NC(=O)[C@H]([C@@H](C)O)NC(=O)[C@H](CC(N)=O)NC(=O)[C@@H](NC(C)=O)C(C)(C)SSC2(C)C)CCNCC1)C(=O)N[C@@H](CC(N)=O)C(=O)NCCC(N)=O [compound 275]	> 24 h	> 24 h	2.17 nM	8 h	

Structure (SMILES)	half-life at 20 μM [3]	SIF t½ [4]	half-life at 20 μM [1]	half-life at 20 μM (Stability in rat plasma)	IC50 [2]	half-life at 20 μM ([3]; cynomolgus monkey)	half-life at 20 μM [4]
CC(=O)NCCCC[C@H](NC(=O)[C@](C)(CCCCN)NC(=O)[C@H](Cc1ccc2ccccc2c1)NC(=O)[C@H](Cc1ccc(OCCN)cc1)NC(=O)[C@H]1NC(=O)[C@H](CCC(N)=O)NC(=O)[C@H](Cc2c[nH]c3c(C)cccc23)NC(=O)[C@H]([C@@H](C)O)NC(=O)[C@H](CC(N)=O)NC(=O)[C@@H](NC(C)=O)C(C)(C)SSC1(C)C)C(=O)N[C@@H](CC(N)=O)C(=O)NCCC(N)=O [compound 202]	10 h				1.1 nM		
CC(=O)NCCCC[C@H](NC(=O)[C@](C)(CCCCN)NC(=O)[C@H](Cc1ccc2ccccc2c1)NC(=O)[C@H](Cc1ccc(OCCN)cc1)NC(=O)[C@H]1NC(=O)[C@H](CCCCNC(=O)C2CCCCC2)NC(=O)[C@H](Cc2c[nH]c3c(C)cccc23)NC(=O)[C@H]([C@@H](C)O)NC(=O)[C@H](CC(N)=O)NC(=O)[C@@H](NC(C)=O)C(C)(C)SSC1(C)C)C(=O)N[C@@H](CC(N)=O)C(=O)N[C@H](CC(C)C)C(N)=O [compound 316]	> 24 h	24 h	> 24 h	> 24 h	5.6 nM		
